How the values were obtained:
[1] = target: T1, glucose oxidase (Aspergillus niger, UniProt P13006); assay: Kinetic studies of the blue dye with oxidases (Michaelis-Menten constant); format: biochemical; settings: compared with lactate oxidase and xanthine oxidase
T1 construct: purchased Sigma (St. Louis, Mo.)

[2] = water; cited from earlier work
[3] = Sensitivity of the dye / its absorption characteristics to pH variation; format: physicochemical; settings: products of chemical oxidation by ceric sulfate or iodine/KI
Text: It was also noted that the DMFeCp2 -hp-β-CD complex stored at room temperature began to turn green, indicating a preference toward the oxidized state. As also reported, 15 the redox potential of DMFeCp2 is lowest (100 mV) among several known ferrocene-related compounds and this may contribute to the stability of DMFeCp2^+ in comparison to FeCp2^+. Both forms of ferricinium were insensitive to pH variation from 2-11. This characteristic is of advantage since the assay can be performed regardless of some fluctuation in pH and is applicable for a variety of oxidases with different pH optima. Due to the instability of the concentrated FeCp2^+, further studies focused on the electrochemically produced DMFeCp2^+.
Both FeCp2 and DMFeCp2 were oxidized by ceric sulfate or iodine/KI to FeCp2 H^+, (ferrocenonium) and DMFeCp2 H^+ (1,1'-dimethylferrocenonium), respectively. The reaction was almost instantaneous and the spectra of these two cation species were identical to those of ferricinium and 1,1'-dimethylferricinium. […] Such results were not completely unexpected since in strong acid media ferrocene was reported to undergo extensive protonation on the metal atom.

[4] = prepared with soluble bilirubin oxidase, stored at 4° C.

T1 sequence (P13006 17-605): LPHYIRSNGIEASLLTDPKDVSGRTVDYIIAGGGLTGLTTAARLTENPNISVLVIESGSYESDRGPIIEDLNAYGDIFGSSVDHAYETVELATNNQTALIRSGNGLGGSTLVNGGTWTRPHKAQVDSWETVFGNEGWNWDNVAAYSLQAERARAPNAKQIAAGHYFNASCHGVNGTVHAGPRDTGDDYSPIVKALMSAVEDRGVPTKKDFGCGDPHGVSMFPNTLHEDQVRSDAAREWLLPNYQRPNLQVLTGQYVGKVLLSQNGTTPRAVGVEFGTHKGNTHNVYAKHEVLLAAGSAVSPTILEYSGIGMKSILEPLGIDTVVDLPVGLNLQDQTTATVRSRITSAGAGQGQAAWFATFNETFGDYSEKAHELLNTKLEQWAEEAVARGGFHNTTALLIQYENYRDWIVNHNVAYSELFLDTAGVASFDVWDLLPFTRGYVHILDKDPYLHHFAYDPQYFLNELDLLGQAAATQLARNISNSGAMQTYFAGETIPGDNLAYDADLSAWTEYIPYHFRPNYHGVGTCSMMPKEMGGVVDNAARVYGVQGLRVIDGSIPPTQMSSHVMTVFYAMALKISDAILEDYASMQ

stability against changes in pH [3] | Compound | solubility of the cyclodextrin in aqueous solutions [2] | also measured
– | 1,1'-dimethylferricinium [DMFeCp2^+] | – | Michaelis-Menten constant for the blue dye [1]: noticeably higher
– | 2-hydroxypropyl-β-cyclodextrin [Hp-β-CD] | 50 % w/v | –
not stable against changes in pH | CC1C=CC=C1.C[c-]1cccc1.[Fe+2] [DMFeCp2 H^+, 1,1'-dimethylferrocenonium] | – | –
– | OC[C@H]1O[C@@H]2O[C@H]3[C@H](O)[C@@H](O)[C@@H](O[C@H]4[C@H](O)[C@@H](O)[C@@H](O[C@H]5[C@H](O)[C@@H](O)[C@@H](O[C@H]6[C@H](O)[C@@H](O)[C@@H](O[C@H]7[C@H](O)[C@@H](O)[C@@H](O[C@H]1[C@H](O)[C@H]2O)O[C@@H]7CO)O[C@@H]6CO)O[C@@H]5CO)O[C@@H]4CO)O[C@@H]3CO [α-CD, α-cyclodextrin] | 12-16 % w/v | –
– | ferricinium [FeCp2^+] | – | time stable [4]: 2 months
not stable against changes in pH | ferrocenonium [FeCp2 H^+] | – | –

Source: US5432274A, “Redox dye and method of preparation thereof using 2-hydroxypropyl-β-cyclodextrin and 1,1'-dimethylferrocene” (National Research Council of Canada, priority 1993, dated 1995)
